Assay results: patent publication US11773183B2, “MUC16 monoclonal antibody and uses thereof” (QUEST PHARMATECH INC., priority 2018, dated 2023)

Tested on: T3M4 wildtype (WT) cells
Test: Live/Dead cell cytotoxicity assay, T3M4 wildtype cells
Assay type: cell-based, human
Conditions: 24 h
Method: Materials and Methods. T3M4 wildtype (WT) and COSMC deleted (SimpleCells, SC) were treated with equal amounts of mAR 9.6 (5 μg/ml) and POCmAb (5 μg/ml) or with isotype matched (either mouse or human) control IgG antibody for 24 h. For the comparison of effect of antibodies in inducing cell death, T3M4 WT cells were treated with Sapitinib (an ErbB receptor tyrosine kinase inhibitor, 5.4 μM) and LY294002 (PI3K/Akt inhibitor, 11.3 μM) alone or in combination with mAR9.6 (5 μg/ml) and POCmAb (5 μg/ml) for 24 h. The cells were washed well with cell-culture grade PBS. 20 μl ethidium homodimer-1 (EthD-1, 2 mM) was dissolved in 10 ml PBS. To this solution, 5 μl of calcein acetoxymethyl ester (calcein-AM, 4 mM) was added. 150 μl of this combined reagent was added to the cells grown on coverslip and incubated for 30-45 minutes. The numbers of live and dead cells were detected with Zeiss LSM 710™ confocal laser scanning microscope (Carl Zeiss, Inc., Thornwood, NY, USA) at Confocal Laser Scanning Fluorescence Microscope Core Facility, UNMC. The ratio of dead cells to total cells was calculated for quantitative comparisons. Unpaired Student's t-test was performed to calculate the statistical significance between the antibodies treated T3M4 WT and T3M4 SC cells (n=4) (p<0.05 considered statistically significant). Two way analysis of variance (ANOVA) was performed to calculate the statistical significance between the inhibitors and antibody treated T3M4 cells (n=4) (p<0.05 considered statistically significant).

[1] = inhibitor (Sapitinib 5.4 μM, LY294002 11.3 μM) with human IgG isotype control
[2] = inhibitor (Sapitinib 5.4 μM, LY294002 11.3 μM) with mouse IgG isotype control

SMILES | cell death (ratio of dead cells to total cells) [1] | cell death (ratio of dead cells to total cells) [2]
O=c1cc(N2CCOCC2)oc2c(-c3ccccc3)cccc12 [LY294002] | about 15% | about 15%
CNC(=O)CN1CCC(Oc2cc3c(Nc4cccc(Cl)c4F)ncnc3cc2OC)CC1 [Sapitinib] | about 17% | about 17%
